Assay results published in patent US11160798B2, “Neuroprotective CB2 receptor agonists” (THE CLEVELAND CLINIC FOUNDATION, priority 2012, dated 2021).
Entries after “also recorded” stand apart in the source; their conditions may differ.

Key:
hCB1 = hCB1 (Homo sapiens, UniProt P21554); details: cited from earlier work
[1] = system: cognitive impairment induced by Aβ1-40; test: Morris water maze test in rats microinjected with Aβ1-40 fibrils; type: in vivo, rat
Procedure: Animals and treatment protocol. All animal procedures were approved by the Animal Care and Use Committee of Cleveland Clinic. Animals were housed the Institutional Biological Rodent Unit on a 12/12 h light/dark cycle with water and food pellets available ad libitum. Adult male Sprague-Dawley (Charles River, Wilmington, Mass.) rats weighing 200-250 g were used, and all experiments were performed during the light cycle.
Animals were divided into several groups ([…]). The Aβ1-40 group received bilateral intracerebral microinjection of Aβ1-40 fibrils once and saline intraperitoneally (i.p.) daily for 14 days. The Aβ1-40+MDA7 group received bilateral intracerebral microinjection of Aβ1-40 fibrils once and 15 mg/kg MDA7 i.p. daily for 14 days. Other cohorts received smaller doses of MDA7 (5 mg/kg or 1.5 mg/kg) i.p. daily for 14 days to determine the dose-response characteristics for MDA7. In other groups, AM630 (a CB2 antagonist) 5 mg/kg i.p. was administered daily for 14 days either alone (Aβ1-40+AM630 group) or 15 min prior to MDA7 (15 mg/kg i.p.) administration (Aβ1-40+MDA7+AM630 group) to rats injected with β1-40 fibrils. MDA7 group and control group received bilateral intracerebral microinjection of artificial cerebrospinal fluid (130 mM NaCl, 2.6 mM KCl. 4.3 mM MgCl2 and 1.8 mM CaCl2) once and 15 mg/kg MDA7 or saline i.p. daily for 14 days, respectively. Intraperitoneal administration of AM630, MDA7 or saline started on the same day after intracerebral microinjection of Aβ1-40. All drugs were prepared coded. Decoding was performed at the end of all experiments.
Microinjection of amyloid fibrils into the hippocampal CA1 area. Rats were anesthetized with sodium pentobarbital (45 mg/kg i.p.) and restrained in a stereotaxic apparatus. Aβ1-40 fibrils were formed as described previously. Chacon, et al., Mol Psychiatry 9(10), 953-61 (2004), Aβ1-40 fibrils (10 μg/3 μl) or 3 μl of artificial cerebrospinal fluid were injected stereotaxically and bilaterally into each hippocampus (coordinates; Bregma −3.5 mm anteroposterior, ±2.0 mm mediolateral, and −3.0 mm dorsoventral) using a 10 μl Hamilton syringe with a 27 G stainless steel needle at a rate of 0.5 μl/min. This experimental model has been used for studying AD. Ahmed, et al., Neuroscience 169(3), 1296-306 (2010).
Morris water maze test. A cohort of rats (n=10 per group) was tested 15 days after surgery as described by Chacon et al. (ibid). Testing was conducted in all groups at the same time of the day. The experimental apparatus consisted of a circular pool (120 cm in diameter, 45 cm high). An invisible platform (15 cm in diameter, 35 cm high) was placed 1.5 cm below the surface of the water. The water temperature was kept at 24-28° C. The pool was located in a test room, and many clues external to the maze were visible from the pool, which could be used by the rats for spatial orientation. The position of the cues was kept constant throughout the task. Each rat underwent four trials per day for five days. During each trial (memory acquisition), the rats were placed randomly at one of four fixed starting points and were allowed to swim for 120 s or until they escaped from the water by reaching the platform. The platform was located in the same position throughout the test in the middle of one quadrant. The start location was moved to a different quadrant in each trial so that no single start location was used in consecutive trials. In each training session, the latency to escape to the hidden platform was recorded. After the rats reached the platform, they were allowed to rest there for 20 seconds, and they then were removed from the pool. An inter-trial interval of at least 4 minutes was used to ensure that each rat's performance was not impaired by fatigue. After completing four trials, the rats were removed from the pool, dried and returned to their home cage. […]

IL-1β = IL-1β protein expression in hippocampal CA1 area (immunoblotting); type: in vivo, rat; details: Aβ1-40-injected rats, 15 mg/kg i.p. daily for 14 days
Procedure: Animals were divided into several groups (40-50 rats per group). The Aβ1-40 group received bilateral intracerebral microinjection of Aβ1-40 fibrils once and saline intraperitoneally (i.p.) daily for 14 days. The Aβ1-40+MDA7 group received bilateral intracerebral microinjection of Aβ1-40 fibrils once and 15 mg/kg MDA7 i.p. daily for 14 days. Other cohorts received smaller doses of MDA7 (5 mg/kg or 1.5 mg/kg) i.p. daily for 14 days to determine the dose-response characteristics for MDA7. In other groups, AM630 (a CB2 antagonist) 5 mg/kg i.p. was administered daily for 14 days either alone (Aβ1-40+AM630 group) or 15 min prior to MDA7 (15 mg/kg i.p.) administration (Aβ1-40+MDA7+AM630 group) to rats injected with β1-40 fibrils. […]
Protein extraction and immunoblotting. […] Protein concentrations were determined by using the Bio-Rad (Hercules, Calif.) protein assay kit.
The samples were treated with SDS sample buffer at 95° C. for 5 min, loaded on a 7.5% SDS-polyacrylamide, gel, and blotted to a nitrocellulose membrane. […] The immunoreactivity was detected using enhanced chemiluminescence (ECL Advance Kit; Amersham Biosciences). The intensity of the bands was captured digitally and analyzed quantitatively with ImageJ software. […]

Chain of hCB1 (P21554 whole entry): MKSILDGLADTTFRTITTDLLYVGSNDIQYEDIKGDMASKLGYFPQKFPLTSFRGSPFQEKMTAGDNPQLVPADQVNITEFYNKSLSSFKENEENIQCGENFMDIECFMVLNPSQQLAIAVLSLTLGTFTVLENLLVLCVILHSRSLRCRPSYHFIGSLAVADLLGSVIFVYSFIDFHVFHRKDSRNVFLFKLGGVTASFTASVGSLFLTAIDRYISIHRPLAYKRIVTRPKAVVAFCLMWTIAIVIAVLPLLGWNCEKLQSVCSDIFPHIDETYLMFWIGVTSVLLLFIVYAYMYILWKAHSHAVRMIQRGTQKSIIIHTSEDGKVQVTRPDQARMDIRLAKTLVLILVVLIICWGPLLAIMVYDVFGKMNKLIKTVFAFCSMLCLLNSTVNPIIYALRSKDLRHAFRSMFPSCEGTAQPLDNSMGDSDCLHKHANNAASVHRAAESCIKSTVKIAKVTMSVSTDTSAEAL

## CC1(Cc2ccccc2)COc2cc(C(=O)N3CCCCC3)ccc21 (stereo not shown) [MDA7, 3-benzyl-3-methyl-2,3-dihydrobenzofuran-6-carboxylic acid-piperidine amide]
hCB1
  EC50 at hCB1: not active
[1]; Aβ1-40 fibril-injected rats, 1.5 mg/kg i.p. daily for 14 days
  escape latency / memory enhancement in the Morris water maze test: did not result in any significant memory enhancement
[1]; Aβ1-40 fibril-injected rats, 5 mg/kg i.p. daily for 14 days
  escape latency / memory enhancement in the Morris water maze test: limited only to days 3 and 5
[1]; Aβ1-40 fibril-injected rats, 15 mg/kg i.p. daily for 14 days, vs i.p. saline, days 3-5
  escape latency in the Morris water maze test: significantly shorter escape latency
[1]; Aβ1-40 fibril-injected rats, 15 mg/kg i.p. for 14 days, vs i.p. saline, day 6, 15 mg/kg
  probe trial, time spent in the target quadrant: spent the longest time in the target quadrant; also recorded: significantly longer time in the target quadrant
[1]; rats microinjected with artificial cerebrospinal fluid, 15 mg/kg for 14 days vs saline i.p.
  escape latency, treatment alone: no significant difference
IL-1β
  IL-1β protein expression (immunoblot): significantly attenuated
